Measured values as given in article PMC9465178, “Cinnamaldehyde derivatives act as antimicrobial agents against Acinetobacter baumannii through the inhibition of cell division” (Frontiers in Microbiology, 2022).
pIC50: −log10 of the molar value. ≈ marks a conversion by molar mass, not a printed value. Where two headings read alike, the source gives them in different places. Peptide text beside a SMILES is read from it. * marks the point of attachment. βNA = c1ccc2cc(N*)ccc2c1

How the values were obtained:
A. baumannii XDR UW 5075 = test: MIC, microbroth dilution (EUCAST); format: cell-based, Acinetobacter baumannii
Method: (§1) Reference bacterial strains were obtained from the American Type Culture Collection (ATCC). Vancomycin resistant Enterococcus faecium (VRE 734, wastewater isolate from the Venter Laboratory Collection) was isolated on Bile Esculin agar (Oxoid, Australia) containing 6 μg/mL vancomycin and identified using MALDI-TOF mass spectrometry (Bruker, Preston, Victoria, Australia, Australian Center for Antimicrobial Resistance Ecology). The Pseudomonas aeruginosa WT PAO1 and Escherichia coli with deletions of both acrA and acrB genes encoding drug efflux pumps were obtained from the Venter laboratory stock ([Welch et al., 2010]). The protocol for microbial growth was adopted from the European Committee on Antimicrobial Susceptibility Testing (EUCAST) ([European Committee for Antimicrobial Susceptibility Testing, 2016]).
(§2) Non-fastidious bacteria and clinical isolates were maintained in Mueller Hinton (MH) broth (Acumedia, United Kingdom) supplemented with 15% (v/v) glycerol (Chem-Supply, Australia), cultured on Mueller Hinton (MH) agar (Acumedia, United Kingdom) plated and incubated at 37°C. Fastidious bacteria were maintained in Brain Heart Infusion (BHI) broth (Acumedia, United Kingdom) supplemented with 15% (v/v) glycerol at −80°C. The fastidious bacteria were cultured on MH agar plates supplemented with 5% (v/v) lysed horse blood and 3% (v/v) fetal bovine serum and incubated at 30°C in the presence of 5% CO2. Drug susceptibility assays were carried out with the non-fastidious cultures grown in cation-adjusted Mueller Hinton (CaMH) broth (Becton Dickinson, France). Streptococcus pyogenes was grown in CaMH broth supplemented with 5% (v/v) lysed horse blood and 3% (v/v) fetal bovine serum whereas Enterococcus faecium was grown in BHI broth.
(§3) The minimum inhibitory concentrations (MICs) for all six compounds were determined using the microbroth dilution protocol as per EUCAST with an inoculum of approximately […] in an exponential growth phase ([European Committee for Antimicrobial Susceptibility Testing, 2016]). Bacterial suspension, 100 μL/well, was added to 100 μL/well of drug dilutions, then incubated for 18 h at 37°C. Fastidious bacterial suspensions were instead incubated at 30°C in the presence of 5% CO2. Bacterial growth was assessed by measuring the change in A600 nm between time 0 and 18 h (Cytation5® Cell Imaging Multi-Mode Reader, Bio-Tek®). Levofloxacin was used as the positive control. Assays were completed in duplicate in at least three independent experiments.

A. baumannii ATCC 19606 [1] = test: MIC, microbroth dilution (EUCAST); format: cell-based, Acinetobacter baumannii
Method: as §1, §2, §3

A. baumannii ATCC 19606 [2] = test: Cell division phenotype by light microscopy; format: cell-based, Acinetobacter baumannii; settings: divin at 64 μg/mL
Method: Morphological changes of bacteria when exposed to the compounds were assessed microscopically using the assay as previously described ([Chai et al., 2020]). Eppendorf® tubes were set up with A. baumannii ATCC 19606 as described for the time-kill assays. At time 0, 1, 3, 6, and 18 h, an aliquot of the bacterial suspension (1 μL) was transferred onto a glass slide and viewed under a light microscope (Olympus CX33®) at 100 × magnification. Representative images were captured using JENOPTIK GRYPHAX® imaging.
A 1 μL aliquot was taken out at varying timepoints (0, 1, 3, 6, and 18 h) and imaged by light microscopy. The images for 6 h are depicted here. […] The white arrow indicates “grooving” site, an indication of where separation of daughter cells should take place. Scale bar is 50 μm.
Four of the compounds (LXC 31, 33, 35 and 41) were tested at 1× and 2× their minimum inhibitory concentration (MIC) whereas LXC 36 and 43 were tested at 2× and 4× MIC. The phenotypic changes in A. baumannii morphology were analysed under a light microscope (100× magnification) at time 0, 1, 3, 6 and 18 h. Scale bar is 50 µm.

[3] = test system: Klebsiella pneumoniae ATCC 13883; test: Antibacterial activity (MIC), microbroth dilution; format: cell-based; settings: ATCC13883; Klebsiella pneumoniae ATCC 13883; unit inferred; read-out: Antibacterial activity (MIC)
Method: as §1, §2, §3

[4] = test system: Escherichia coli ATCC 35218; test: Antibacterial activity (MIC), microbroth dilution; format: cell-based; settings: ATCC35218; Escherichia coli ATCC 35218; unit inferred; read-out: Antibacterial activity (MIC)
Method: as §1, §2, §3

[5] = test system: Methicillin resistant Staphylococcus aureus; test: Antibacterial activity (MIC), microbroth dilution; format: cell-based; settings: ATCC 43300 / MRSA; Methicillin resistant Staphylococcus aureus (MRSA ATCC 43300); unit inferred; read-out: Antibacterial activity (MIC)
Method: as §1, §2, §3

[6] = test system: Escherichia coli WT BW 25113; test: Antibacterial activity (MIC), microbroth dilution; format: cell-based
Method: as §1, §2, §3

[7] = test system: Klebsiella pneumoniae ATCC 4352; test: Antibacterial activity (MIC), microbroth dilution; format: cell-based; settings: ATCC4352; Klebsiella pneumoniae ATCC 4352; unit inferred; read-out: Antibacterial activity (MIC)
Method: as §1, §2, §3

[8] = test system: Streptococcus pyogenes ATCC 10389; test: Antibacterial activity (MIC), microbroth dilution; format: cell-based; settings: ATCC10389; Streptococcus pyogenes ATCC 10389; unit inferred; read-out: Antibacterial activity (MIC)
Method: as §1, §2, §3

[9] = test system: Pseudomonas aeruginosa ATCC 27853; test: Antibacterial activity (MIC), microbroth dilution; format: cell-based; settings: ATCC27853; Pseudomonas aeruginosa ATCC 27853; unit inferred; read-out: Antibacterial activity (MIC)
Method: as §1, §2, §3

[10] = test system: Streptococcus pneumoniae (type 3, mucoid strain) ATCC 6303; test: Antibacterial activity (MIC), microbroth dilution; format: cell-based; settings: ATCC6303; Streptococcus pneumoniae ATCC 6303; unit inferred; read-out: Antibacterial activity (MIC)
Method: as §1, §2, §3

[11] = test system: Pseudomonas aeruginosa WT PAO1; test: Antibacterial activity (MIC), microbroth dilution; format: cell-based; settings: Pseudomonas aeruginosa WT PAO1; unit inferred; read-out: Antibacterial activity (MIC)
Method: as §1, §2, §3

[12] = test system: Klebsiella pneumoniae ATCC 33495; test: Antibacterial activity (MIC), microbroth dilution; format: cell-based; settings: ATCC33495; Klebsiella pneumoniae ATCC 33495; unit inferred; read-out: Antibacterial activity (MIC)
Method: as §1, §2, §3

[13] = test system: Enterobacter aerogenes ATCC 13408; test: Antibacterial activity (MIC), microbroth dilution; format: cell-based; settings: Klebsiella aerogenes, ATCC13408; Enterobacter aerogenes ATCC 13408; unit inferred; read-out: Antibacterial activity (MIC)
Method: as §1, §2, §3

[14] = test system: A. baumannii ATCC 19606 and UW 5075; test: Outer membrane permeabilisation, nitrocefin hydrolysis; format: cell-based, Acinetobacter baumannii; settings: PAβN at 100 or 200 µg/mL, nitrocefin hydrolysis at 490 nm
Method: A. baumannii ATCC 19606 and the extensively resistant strain UW 5075 were assayed for permeabilisation of the outer membrane by the efflux pump inhibitor PAβN. Nitrocefin was added to the cells that received no treatment (black circles), cells treated with the outer membrane permeabilizer polymyxin B (PMB, red squares) or PAβN at 100 µg/mL (light blue triangles) or 200 µg/mL (dark blue triangles). Nitrocefin hydrolysis by the periplasmic β-lactamase was observed as an increase in absorbance at 490 nm. Representative traces are shown from triplicate experiments performed on different days. Symbols represent the mean of triplicate readings ± SEM.

E. coli = settings: cited from earlier work
E. coli FtsZ [15] = test system: E. coli FtsZ; set-up: method as in Domadia et al., 2007; settings: ref Domadia et al., 2007, read-out: IC50, GTPase activity; cited from earlier work
E. coli FtsZ [16] = settings: E. coli FtsZ; ref Domadia et al., 2007; cited from earlier work
human red blood cells = test: Hemolysis assay; format: cell-based
Method: The hemolysis assay was performed using fresh human red blood cells (RBCs). […] These were performed in quadruplicate. Thereafter, 192 μL RBCs were added into all wells and the plates were incubated at 37°C under constant shaking (100 rpm) for 1 h. RBCs were precipitated by centrifugation of the plates (1,000× g for 3 min). An aliquot (100 μL) of each supernatant was transferred into a new 96-microwell plate and the A450 nm was determined using a PerkinElmer Enspire® plate reader. The fraction of intact RBC for each sample was determined as fraction of the intact RBCs for the sample without the addition of compounds (set at 100%) and plotted as a function of compound concentration.
A 1% (v/v) Triton X-100 was used to indicate complete RBC lysis (^‡). […] The assays were performed in quadruplicates. The plates were incubated at 37°C while constantly shaking at 100 rpm for 1 h. Intact RBCs were removed by centrifugation and the presence of hemolytic products in the supernatant were determined by measuring the absorbance at A450 nm. The results are presented in mean ± SEM. Statistical analysis was performed using one-way ANOVA and the asterisks (*) represent statistical significance (*p < 0.05; **p < 0.005; ***p < 0.0005; ****p < 0.0001).

[17] = Acinetobacter baumannii, XDRUW5075, 18 h
[18] = Acinetobacter baumannii, ATCC19606, A. baumannii ATCC 19606, 18 h, 37°C, read-out: MIC
[19] = WTBW25113, Escherichia coli WT BW 25113, unit inferred, read-out: Antibacterial activity (MIC)

Compound Colistin [reference compound] has an MIC (A. baumannii XDR UW 5075; A. baumannii XDR UW 5075, 18 h, 37°C) of 2 µg/mL and an MIC (A. baumannii ATCC 19606 [1]; A. baumannii ATCC 19606, 18 h, 37°C) of 2 µg/mL.

With Cc1nc2ccccc2n1CCC(=O)NN=Cc1c(O)ccc2ccccc12 [divin, reference compound] the Cell morphology (A. baumannii ATCC 19606 [2]) was “elongated cell shape”.

Work on C[C@H]1COc2c(N3CCN(C)CC3)c(F)cc3c(=O)c(C(=O)O)cn1c23 [Levofloxacin, reference compound] yielded an MIC (A. baumannii XDR UW 5075; [17]) of 8 µg/mL (≈ 22.1 µM), an MIC (A. baumannii ATCC 19606 [1]; [18]) of 0.5 µg/mL (≈ 1.38 µM) and an MIC [3] of 1 µg/mL (≈ 2.77 µM). The MIC [4] was 0.004 µg/mL (≈ 0.0111 µM), the MIC [5] was 1 µg/mL (≈ 2.77 µM) and the MIC ([6]; Escherichia coli, WTBW25113, read-out: Antibacterial activity (MIC)) was 0.25 µg/mL (≈ 0.692 µM). The MIC [7] was 1 µg/mL (≈ 2.77 µM), the MIC [8] was 1 µg/mL (≈ 2.77 µM) and the MIC [9] was 1 µg/mL (≈ 2.77 µM). For the same compound, the MIC [10] was 1 µg/mL (≈ 2.77 µM), the MIC [11] was 0.5 µg/mL (≈ 1.38 µM) and the MIC [12] was 1 µg/mL (≈ 2.77 µM). For the same compound, the MIC [13] was 1 µg/mL (≈ 2.77 µM).

With Cc1onc(-c2ccccc2)c1C(=O)N[C@@H]1C(=O)N2[C@@H]1SC(C)(C)[C@@H]2C(=O)O [OXA, oxacillin, reference compound] the MIC [3] was over 64 µg/mL, the MIC [4] was over 64 µg/mL and the MIC [5] was 16 µg/mL (≈ 39.9 µM). For the same compound, the MIC [6, 19] was over 64 µg/mL, the MIC [7] was over 64 µg/mL and the MIC [9] was over 64 µg/mL. It also gave an MIC [11] of over 64 µg/mL, an MIC [12] of over 64 µg/mL and an MIC [13] of over 16 µg/mL.

CC1(C)S[C@@H]2[C@H](NC(=O)[C@H](N)c3ccc(O)cc3)C(=O)N2[C@H]1C(=O)O [Amoxycillin, reference compound] gave an MIC (A. baumannii XDR UW 5075; [17]) of 1020 µg/mL (≈ 2800 µM) and an MIC (A. baumannii ATCC 19606 [1]; [18]) of 64 µg/mL (≈ 175 µM).

With NC(N)=NCCC[C@H](NC(=O)[C@@H](N)Cc1ccccc1)C(=O)Nc1ccc2ccccc2c1 [PAβN, phenylalanine arginine-β-naphthylamide] (H-Phe-Arg-βNA) the “Damage of the bacterial outer membrane” value [14] was “does not damage the bacterial outer membrane”.

CNC(C)C1CCC(N)C(OC2C(N)CC(N)C(OC3OCC(C)(O)C(NC)C3O)C2O)O1 (stereo not shown) [Gentamicin, reference compound] showed an MIC (A. baumannii XDR UW 5075; [17]) of over 1020 µg/mL and an MIC (A. baumannii ATCC 19606 [1]; Acinetobacter baumannii, ATCC19606, 18 h) of 16 µg/mL (≈ 33.5 µM).

For O=C/C=C/c1ccccc1 [cinnamaldehyde], the MIC (E. coli; ref Domadia et al., 2007, Li et al., 2015a) is given as 1000 µg/mL (≈ 7570 µM), the “Mechanism of action (bacteriostatic)” value (E. coli; ref Domadia et al., 2007) is given as “bacteriostatic” and the pIC50 (E. coli FtsZ [15]) is given as 5.24. For the same compound, the “ED50, self-polymerization” value (E. coli FtsZ [16]) was 6.9 µM.

For C[C@@H](O)[C@H]1C(=O)N2C(C(=O)O)=C(SCCN=CN)C[C@H]12 [Imipenem, reference compound], the MIC (A. baumannii XDR UW 5075; [17]) was 128 µg/mL (≈ 428 µM) and the MIC (A. baumannii ATCC 19606 [1]; [18]) was 1 µg/mL (≈ 3.34 µM).

In the case of Triton X-100 [reference compound], the Hemolytic activity (human red blood cells) was “completely disrupt the red blood cells”.

For CO[C@H]1/C=C/O[C@@]2(C)Oc3c(C)c(O)c4c(O)c(c(/C=N/N5CCN(C)CC5)c(O)c4c3C2=O)NC(=O)/C(C)=C\C=C\[C@H](C)[C@H](O)[C@@H](C)[C@@H](O)[C@@H](C)[C@H](OC(C)=O)[C@@H]1C [RIF, rifampicin, reference compound], the MIC [3] was 8 µg/mL (≈ 9.72 µM), the MIC [4] was over 16 µg/mL and the MIC [5] was 32 µg/mL (≈ 38.9 µM). The MIC [6, 19] was over 16 µg/mL, the MIC [7] was over 64 µg/mL and the MIC [9] was 32 µg/mL (≈ 38.9 µM). It also gave an MIC [11] of 32 µg/mL (≈ 38.9 µM), an MIC [12] of 32 µg/mL (≈ 38.9 µM) and an MIC [13] of 16 µg/mL (≈ 19.4 µM).
